Assay results taken from a melting point compilation (Tetko et al.; mined from patent text by program, amines drawn as free bases though some values may be those of a salt).

Row | SMILES | melting point
1 | CCCCCCCCCCCCCCCCCC(=O)CC(=O)OC | 52 to 54 °C
2 | Nc1cccc(NC(=O)C(F)(F)C(F)(F)F)c1 | 86 to 88 °C
3 | Cc1cc(Br)c2c(c1)C(=O)C(=O)N2CCN(C(C)C)C(C)C | 94 to 97 °C
4 | COc1cc(Br)c(C(C)=O)cc1O | 110 to 111 °C
5 | CCc1cn(C2CC(O)C(CCC(O)Cc3c(Cl)cccc3Cl)O2)c(=O)[nH]c1=O (mixture of isomers) | 185 to 186 °C
6 | N#Cc1cc(-c2nc3cncnc3s2)ccc1Oc1cccc(F)c1 | 189 to 190 °C
7 | CC(O)CCSC(=S)Nc1ccc(Cl)cn1 (configuration not stated) | 120 °C
8 | CC(c1c[nH]cn1)C(N)CO (configuration not stated) | 168 °C
9 | OC(CCCN1CC=C(c2ccccc2)CC1)c1ccc(F)cc1 (configuration not stated) | 116 to 117 °C
10 | COc1ccc(-c2ccc3c(c2)C=C(C(=O)Nc2ccc(CN(C)C4CCC5(CC4)OCCO5)cc2)CCS3)cc1 | 198 to 201 °C
11 | Cc1c(C(=O)Nc2ccc(N3CCC(N4CCOCC4)CC3)c(C#N)c2)cnn1-c1ccc(Cl)cc1 | 249 to 250 °C
12 | CCN(CC(C)C)c1c(C(O)C#Cc2ccc(C(=O)O)cc2)cccc1C(C)(C)C (configuration not stated) | 117 °C
13 | C=CCOc1ccc(CCC(=O)O)cc1 | 88 to 89 °C
14 | O=C(CNC(=O)OCc1ccc([N+](=O)[O-])cc1)Oc1ccc(C(=O)OCI)cc1 | 146 to 148 °C
15 | CCS(=O)(=O)c1cc(C(=O)Cl)c(OC)cc1Cl | 115 to 117 °C
16 | CCC(O)(CC)c1ccc(-c2cccc(COc3ccc(CO)c(CO)c3)c2)c(C)c1 | 87 °C
17 | CCOC(=O)c1ccc(N)cc1C(=O)OCC | 95.6 °C

Row | SMILES | melting point
18 | COc1cccc(CNc2nccc(-c3cc(N4CCN(CCCN5CCC5)CC4)c4cc(OC)ccc4c3)n2)c1 | 122 to 130 °C
19 | COc1ccc(Oc2nnn[nH]2)cc1 | 150 °C
20 | Cc1cc(C)c2c(c1C)OCC2c1cccc(Br)c1 (configuration not stated) | 73 to 74 °C
21 | COc1c(C(C)(C)C)cc([PH](=O)c2cc(C(C)(C)C)c(OC)c(C(C)(C)C)c2)cc1C(C)(C)C | 166 °C
22 | O=C(Oc1cccc(Cl)c1)c1ncn2c1[C@@H]1CCCN1C(=O)c1c(Cl)cccc1-2 | 194 to 195 °C
23 | CC1CC2C3CCC4=CC(=O)CCC4(C)C3=CCC2(C)C1(O)C(=O)CO (configuration not stated) | 167 to 168 °C
24 | CC(C)N1C(=O)c2ccccc2N(C(=O)c2cc(Oc3ccc(C(F)(F)F)cc3Cl)ccc2[N+](=O)[O-])S1(=O)=O | 125 to 128 °C
25 | Nc1c(Br)cc(Br)cc1S(=O)(=O)C(F)F | 84 to 88 °C
26 | COC(=O)N[C@H](C(=O)NC(Cc1ccccc1)C(O)CNCC(O)[C@@H](Cc1ccc(OCCc2ccccn2)cc1)NC(=O)OC(C)(C)C)C(C)(C)C (relative stereo) | 139 to 141 °C
27 | CN(C)CCCCc1ccc(CO)o1 | 24 °C
28 | CCCCCCCCSCCSc1nc(N)n[nH]1 | 85 to 86 °C
29 | CCOC(=O)C1=C(N)N=C(OCC)C(C(=O)O)C1c1ccccc1[N+](=O)[O-] (configuration not stated) | 133 to 134 °C
30 | COC1=C(OC)C(=O)C(CCCCC[C@H]2CC[C@H](O)CC2)=C(C)C1=O | 49 to 51 °C
31 | CC(C)(CO)NC(=O)c1nn(-c2ccc(F)cc2F)c2c1C1CCC2C1 (configuration not stated) | 142 to 144 °C
32 | O=C(NCCCc1ccncc1)N(CCC12CC3CC(CC(C3)C1)C2)C1CCCC1 | 136 to 138 °C
33 | O=C(NCCN1CCN(c2cccc(Cl)c2)CC1)NC12CC3CC(CC(C3)C1)C2 | 136 to 137 °C

Continued, values first:

Row | melting point | SMILES
34 | 202 to 205 °C | COc1ccc(Cn2nnc(-c3cccc(C(=O)NCc4ccc(C(=O)O)cc4)c3)n2)cc1
35 | 58 to 60 °C | CC(=O)C1(COC(=O)Oc2ccccc2)CC2C=CC1CC2 (configuration not stated)
36 | 190 to 192 °C | COc1ccc(-c2ccc(C(=O)Nc3ccc4cc(CN5CCCC5)cnc4c3C)cc2)cc1
37 | > 300 °C | Cc1ncn(-c2nccc3[nH]c(=O)ccc23)n1
38 | 228 to 230 °C | CCn1ncc2c(NCC3CC3)c3ccccc3nc21
39 | 191 to 193 °C | COC(=O)C1=Cc2cc(-c3ccc(OC)cc3)ccc2S(=O)(=O)CC1
40 | 189 °C | Cc1ccc(C(=O)c2cc(-c3ccc(S(C)(=O)=O)cc3)c(N3CCOCC3)s2)cc1
41 | 100 °C | O=S(=O)(c1ccccc1)N1CCCC1c1ccc(F)cc1 (racemic)
42 | 51 °C | COc1ccc(Cc2ccc3c(c2)OCO3)c(OC)c1
43 | 72.1 °C | N#Cc1ccc(C(=O)C23CCCN2C(=O)N(c2cc(Cl)cc(Cl)c2)C3=O)cc1 (configuration not stated)
44 | 147 to 149 °C | CCCN(CCC(=O)Nc1c(SC)nc(C)nc1N(CC)CC)c1ccccc1
45 | 242 to 244 °C | O=C1COc2ccc(C3=Cc4cccnc4SC3c3ccccc3)cc2N1 (configuration not stated)
46 | 160 °C | CN1C(=O)COC(c2cccc(Cl)c2)c2cc(C(O)(c3ccc(Cl)cc3)c3cncn3C)ccc21 (configuration not stated)
47 | 124 to 125 °C | COc1ccc(C(=O)Cc2ccncc2Cl)cc1OC1CCCC1
48 | 115 to 117 °C | CN=Cc1ccc(-c2ccc(OC)c(Br)c2)cc1
49 | 210 to 211 °C | S=C(c1cc2n(c1)Cc1ccccc1-n1ccnc1-2)N1CCOCC1
50 | 251 to 260 °C | O=[N+]([O-])c1ccc2c(c1)ncn2-c1cccc(-c2nccs2)c1
51 | 185 to 186 °C | c1ccc2[nH]c(Cc3ccncc3)nc2c1
52 | 193 to 197 °C | CCOc1cc2c(Nc3ccc(OC)cc3)c(CO)cnc2nc1C
53 | 124 to 127 °C | COc1ccc(C(CN)C(CN)c2ccc(Cl)cc2)cc1 (configuration not stated)

Row | melting point | SMILES
54 | 136 to 140 °C | CC(C)(C)c1ccn(-c2ccc(C(=O)N3Cc4cccnc4Nc4ccccc43)c(C(F)(F)F)c2)n1
55 | 108 to 110 °C | COc1ccccc1CP(C)(=O)C1CCCCC1 (configuration not stated)
56 | 149 to 151 °C | CCc1[nH]n(C2CCCC2)c2nc(CN3CCc4ccccc4C3)nc(=O)c1-2
57 | 64 to 66 °C | O=C1CCCc2ccc3ccccc3c21
58 | 152 °C | Cc1cccc(Cn2c(NC3CCN(CCO)CC3)nc3cccnc32)n1
59 | 137 to 141 °C | Clc1ccc2c(c1)Cc1ccccc1CN2
60 | 155 to 157 °C | O=C(c1ccc(-c2ccccc2)cc1)c1ccc2n1Cc1ccccc1N(C(=O)COc1ccc(Cl)cc1)C2
61 | 89 to 90 °C | COC(C)(C)CNC(=O)c1cccc(-c2cccc3cc(Cc4cc(F)cc(Cl)c4)sc23)c1
62 | 175 to 176 °C | Cc1cc(O)c2c(C)nn(-c3ccccn3)c2n1
63 | 208 °C | O=C1CN(C(=O)c2ccccc2)c2ccccc2N1
64 | > 300 °C | Cn1c(=O)[nH]c2cccc(I)c2c1=O
65 | 135 to 140 °C | NCC1Cc2cccc(-c3ccc4ccccc4c3)c2O1 (configuration not stated)
66 | 302 to 304 °C | N#Cc1[nH]c2ccc(C(=O)O)cc2c1-c1ccccc1
67 | 169 to 170 °C | N#Cc1ccc(CCn2ccn(C3CCc4ccccc4C3)c2=S)cc1 (configuration not stated)
68 | 192 to 195 °C | Cc1cc2nn(C)c(=O)n2nc1-c1cccc(N)c1
69 | 116 to 120 °C | Cc1cc(C)c2cccc(OCc3c(Cl)ccc(S(=O)(=O)N4CCC[C@H]4C(=O)NCCCNC(=O)c4cccc(C=NN)c4)c3Cl)c2n1
70 | 120 to 122 °C | Cc1ccc2c(c1)CC(=S)N2
71 | 90 to 92 °C | CSC1=C(c2ccc(O)cc2)C(=O)c2cc(O)ccc21
72 | 182 to 183 °C | N#Cc1cccc(C2C=C(C(F)(F)F)NC3=C2C(=O)CCC3)c1 (configuration not stated)
